Data reported in ChEMBL document CHEMBL4418480, “Methods and compositions for modulating rho-mediated gene transcription” (2012).
Calls of active or inactive are those of the source. No cut-off for these calls is given here.

Tests used:
[1] = organism: Homo sapiens; assay: Inhibition of rho-mediated gene transcription in human PC3 cells transfected with Galpha12QL activator at 100 uM incubated for 19 hrs by SRE.L-firefly luciferase based dual luciferase reporter gene assay relative to control; assay type: cell-based
[2] = organism: Homo sapiens; assay: Inhibition of rho-mediated gene transcription in human PC3 cells transfected with Galpha12QL activator at 10 uM incubated for 19 hrs by SRE.L-firefly luciferase based dual luciferase reporter gene assay relative to control; assay type: cell-based
[3] = test system: PC-3; assay: Cytotoxicity against human PC3 cells assessed as inhibition of cell cell viability at 10 uM incubated for 19 hrs by WST1 based assay relative to control; assay type: functional; settings: for inhibition at 10 µM: PC-3, 19 h
[4] = test system: PC-3; assay: Cytotoxicity against human PC3 cells assessed as inhibition of cell cell viability at 100 uM incubated for 19 hrs by WST1 based assay relative to control; assay type: functional; settings: for inhibition at 100 µM: PC-3, 19 h
[5] = Inhibition of rho-mediated gene transcription in human PC3 cells transfected with Galpha12QL activator incubated for 19 hrs by SRE.L-firefly luciferase based dual luciferase reporter gene assay; assay type: cell-based; settings: PC-3, 19 h
[6] = test system: SK-OV-3; assay: Antiinvasive activity against human SKOV3 cells assessed as inhibition of LPA-stimulated cell invasion at 100 ng/ml by matrigel based assay; assay type: functional
[7] = Inhibition of nonspecific gene transcription in human PC3 cells transfected with Galpha12QL activator at 10 uM incubated for 19 hrs by PRL-TK luciferase based dual luciferase reporter gene assay; assay type: cell-based, PC-3
[8] = Inhibition of nonspecific gene transcription in human PC3 cells transfected with Galpha12QL activator at 100 uM incubated for 19 hrs by PRL-TK luciferase based dual luciferase reporter gene assay; assay type: cell-based, PC-3
[9] = test system: SK-MEL-28; assay: Antiproliferative activity against human SK-MEL-28 cells assessed as inhibition of LPA-stimulated cell proliferation at 0.3 mmol/L and measured on day 8 by WST1 based assay; assay type: functional
[10] = organism: Homo sapiens; assay: Antiproliferative activity against human A375M2 cells assessed as inhibition of LPA-stimulated cell proliferation at 0.3 mmol/L and measured on day 8 by WST1 based assay; assay type: functional
[11] = test system: SK-MEL-147; assay: Antiproliferative activity against human SK-MEL-147 cells assessed as inhibition of LPA-stimulated cell proliferation at 0.3 mmol/L and measured on day 8 by WST1 based assay; assay type: functional
[12] = test system: WI-38; assay: Antiproliferative activity against human WI38 cells assessed as inhibition of LPA-stimulated cell proliferation at 0.3 mmol/L and measured on day 8 by WST1 based assay; settings: wi-38, 300 µM
[13] = test system: PC-3; assay: Antiproliferative activity against human PC3 cells assessed as inhibition of LPA-stimulated cell proliferation incubated for 27 hrs by BrdUrd incorporation assay; assay type: functional, cell-based
[14] = test system: PC-3; assay: Antiinvasive activity against human PC3 cells assessed as inhibition of LPA-stimulated cell invasion at 3 umol/L by matrigel based assay; assay type: functional
[15] = test system: A-375; assay: Antiproliferative activity against human A375 cells assessed as inhibition of LPA-stimulated cell proliferation at 0.3 mmol/L and measured on day 8 by WST1 based assay; assay type: functional

| SMILES | inhibition [1] | inhibition [2] | IC50 [5] | inhibition at 19 h, 10 µM [7] | inhibition at 19 h, 100 µM [8] | also measured |
| --- | --- | --- | --- | --- | --- | --- |
| O=C(CONC(=O)c1ccccc1)Nc1ccc(Cl)cc1 | inactive | inactive | > 100 µM | – | – | inhibition [3]: inactive; inhibition [4]: inactive |
| CC(=O)O[C@H]1C(=O)[C@@]2(C)[C@H]([C@H](OC(=O)c3ccccc3)[C@]3(O)C[C@H](OC(=O)[C@H](O)[C@@H](NC(=O)c4ccccc4)c4ccccc4)C(C)=C1C3(C)C)[C@]1(OC(C)=O)CO[C@@H]1C[C@@H]2O | – | – | – | – | – | inhibition [6]: Active |
| O=C(CC1CCCCN1C(=O)c1cc(C(F)(F)F)cc(C(F)(F)F)c1)Nc1ccc(Cl)cc1 (configuration not stated) | – | – | – | 0% | – | – |
| O=C(Nc1ccccc1C(=O)Nc1ccc(Cl)cc1)c1cc(C(F)(F)F)cc(C(F)(F)F)c1 | – | – | – | 0% | – | – |
| O=C(CONC(=O)c1cc(C(F)(F)F)cc(C(F)(F)F)c1)Nc1ccccc1 | 65% | 13% | 36 µM | 33% | 59% | – |
| CN(CCNC(=O)c1cc(C(F)(F)F)cc(C(F)(F)F)c1)C(=O)c1ccc(Cl)cc1 | 25% | 20% | > 1000 µM | 0% | 10% | inhibition at 10 µM [3]: 0%; inhibition at 100 µM [4]: 0% |
| O=C(CCNC(=O)c1cc(C(F)(F)F)cc(C(F)(F)F)c1)Nc1ccc(Cl)cc1 | 64 to 66% | 38 to 44% | 25 to 38 µM | – | 15 to 22% | inhibition at 100 µM [4]: 6 to 10% |
| O=C(CONC(=O)c1cccc(C(F)(F)F)c1)Nc1ccc(Cl)cc1 | 86% | 25% | 27 µM | 5% | 19% | – |
| O=C(CCCCNC(=O)c1cc(C(F)(F)F)cc(C(F)(F)F)c1)Nc1ccc(Cl)cc1 | 12% | 0% | > 100 µM | 0% | 10% | inhibition at 10 µM [3]: 0%; inhibition at 100 µM [4]: 0% |
| O=C(CONC(=O)c1ccc(C(F)(F)F)cc1)Nc1ccc(Cl)cc1 | 91% | 26% | 29 µM | 6% | 0% | – |
| CC(ONC(=O)c1cc(C(F)(F)F)cc(C(F)(F)F)c1)C(=O)Nc1ccc(Cl)cc1 (configuration not stated) | – | 74% | – | 48% | – | inhibition [9]: Active; inhibition [10]: Active; inhibition [11]: Active; inhibition at 10 µM [3]: 44%; Activity [12]: Non-Toxic; inhibition [13]: Active; inhibition [14]: Active; inhibition [15]: Active |
